Assay results taken from publication PMC8159961, “Exploring protein hotspots by optimized fragment pharmacophores” (Nature Communications, 2021).
Where “and” joins values, the source holds several entries; their conditions need not be identical. Equal values may be shown once. Read-outs that look alike come from different tables or passages of the source.

Columns and labels:
[1] = biological target: T1, human thrombin (Homo sapiens, UniProt P00734); test: Protease inhibitory assay, chromogenic substrate S-2238; format: biochemical; conditions: for V0 / Vi / vinit: Thrombin primary screening, substrate 40 µM, cmpd conc 500 µM; for vinit: replicate values; for Ki: plate layout, label = plate position, Cheng-Prusoff, Km 2.6 µM, read-out: Thrombin Ki
T1 construct: human thrombin; purchased Sigma-Aldrich

[2] = biological target: T2, bovine factor Xa (Bos taurus, UniProt P00743); test: Protease inhibitory assay, chromogenic substrate S-2222; format: biochemical; conditions: for vinit: replicate values
T2 construct: bovine factor Xa, Chromogenix, 2 nkat/mL; purchased Chromogenix

[3] = biological target: T3, human 5-HT1A receptor (Homo sapiens, UniProt P08908); test: GPCR radioligand binding assay, [3H]-8-OH-DPAT displacement, HEK293 membranes
T3 construct: expressed in transfected cells
T3 sequence (P08908 1-422): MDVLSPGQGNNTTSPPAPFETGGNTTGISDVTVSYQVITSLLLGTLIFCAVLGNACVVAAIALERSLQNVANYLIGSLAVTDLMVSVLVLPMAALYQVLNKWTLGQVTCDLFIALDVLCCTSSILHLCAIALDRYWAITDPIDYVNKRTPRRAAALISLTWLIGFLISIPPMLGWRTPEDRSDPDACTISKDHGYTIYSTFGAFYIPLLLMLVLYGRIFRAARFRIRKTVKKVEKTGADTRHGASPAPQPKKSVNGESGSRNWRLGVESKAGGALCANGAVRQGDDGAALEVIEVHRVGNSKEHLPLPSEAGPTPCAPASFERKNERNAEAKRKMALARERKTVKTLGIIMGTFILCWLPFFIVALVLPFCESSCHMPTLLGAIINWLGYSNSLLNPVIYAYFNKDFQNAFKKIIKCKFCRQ

[4] = biological target: T4, human 5-HT7b receptor (Homo sapiens, UniProt P34969); test: GPCR radioligand binding assay, [3H]-5-CT displacement, HEK293 membranes
T4 construct: expressed in transfected cells

[5] = biological target: T5, human 5-HT6 receptor (Homo sapiens, UniProt P50406); test: GPCR radioligand binding assay, [3H]-LSD displacement, HEK293 membranes
T5 construct: expressed in transfected cells

[6] = FactorXa Ki determination, substrate 100 µM, cmpd conc 200 µM
[7] = FactorXa Ki determination, substrate 200 µM, cmpd conc 200 µM
[8] = FactorXa primary screening, substrate 100 µM, cmpd conc 200 µM
[9] = FactorXa, substrate 100 µM, cmpd conc 200 µM, one of two values averaged in Supplementary Data 1, read-out: Ki
[10] = FactorXa, substrate 200 µM, cmpd conc 200 µM, one of two values averaged in Supplementary Data 1, read-out: Ki
[11] = 10 µM, read-out: 5-HT1A % Inhibition by plate position
[12] = 5-HT1A, average of exp_1 and exp_2, read-out: %inh 5-HT1A average
[13] = 5-HT1A, average, values below 0 and above 100% were set as 0 and 100, read-out: %inh 5-HT1A corrected*
[14] = 5-HT1A, replicate exp_1, read-out: %inh 5-HT1A exp_1
[15] = 5-HT1A, replicate exp_2, read-out: %inh 5-HT1A exp_2
[16] = 10 µM, read-out: 5-HT7 % Inhibition by plate position
[17] = 5-HT7, average of exp_1 and exp_2, read-out: %inh 5-HT7 average
[18] = 5-HT7, average, values below 0 and above 100% were set as 0 and 100, read-out: %inh 5-HT7 corrected*
[19] = 5-HT7, replicate exp_1, read-out: %inh 5-HT7 exp_1
[20] = 5-HT7, replicate exp_2, read-out: %inh 5-HT7 exp_2
[21] = plate layout, label = plate position, Cheng-Prusoff, Km 164 µM, read-out: Factor Xa Ki
[22] = 10 µM, read-out: 5-HT6 % Inhibition by plate position
[23] = 5-HT6, average of exp_1 and exp_2, read-out: %inh 5-HT6 average
[24] = 5-HT6, average, values below 0 and above 100% were set as 0 and 100, read-out: %inh 5-HT6 corrected*
[25] = 5-HT6, replicate exp_1, read-out: %inh 5-HT6 exp_1
[26] = 5-HT6, replicate exp_2, read-out: %inh 5-HT6 exp_2

T4 sequence (P34969 1-432): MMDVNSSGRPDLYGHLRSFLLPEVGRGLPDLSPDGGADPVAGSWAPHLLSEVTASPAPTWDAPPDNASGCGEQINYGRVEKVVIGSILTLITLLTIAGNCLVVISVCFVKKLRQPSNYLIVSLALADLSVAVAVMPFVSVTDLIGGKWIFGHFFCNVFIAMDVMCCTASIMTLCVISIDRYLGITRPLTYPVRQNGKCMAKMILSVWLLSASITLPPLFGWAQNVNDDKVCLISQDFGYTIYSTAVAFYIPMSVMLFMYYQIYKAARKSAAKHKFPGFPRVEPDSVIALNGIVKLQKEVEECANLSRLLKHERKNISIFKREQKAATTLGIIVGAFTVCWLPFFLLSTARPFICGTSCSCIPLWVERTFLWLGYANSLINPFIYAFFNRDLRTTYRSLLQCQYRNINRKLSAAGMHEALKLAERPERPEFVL
T2 sequence (P00743 234-492 limits assumed): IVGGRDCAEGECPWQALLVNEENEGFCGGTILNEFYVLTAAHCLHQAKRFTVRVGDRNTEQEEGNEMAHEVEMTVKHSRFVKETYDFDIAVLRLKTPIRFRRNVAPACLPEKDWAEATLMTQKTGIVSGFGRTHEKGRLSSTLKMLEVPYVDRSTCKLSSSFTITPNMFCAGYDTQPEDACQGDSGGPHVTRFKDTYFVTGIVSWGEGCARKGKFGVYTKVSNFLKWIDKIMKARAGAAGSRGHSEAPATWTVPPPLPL
T2 sequence (P00743 41-180 partner limits assumed): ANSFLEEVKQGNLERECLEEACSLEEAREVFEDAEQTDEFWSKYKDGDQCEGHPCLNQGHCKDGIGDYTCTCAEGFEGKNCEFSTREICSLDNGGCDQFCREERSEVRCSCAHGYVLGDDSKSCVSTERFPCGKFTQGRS
T5 sequence (P50406 whole entry): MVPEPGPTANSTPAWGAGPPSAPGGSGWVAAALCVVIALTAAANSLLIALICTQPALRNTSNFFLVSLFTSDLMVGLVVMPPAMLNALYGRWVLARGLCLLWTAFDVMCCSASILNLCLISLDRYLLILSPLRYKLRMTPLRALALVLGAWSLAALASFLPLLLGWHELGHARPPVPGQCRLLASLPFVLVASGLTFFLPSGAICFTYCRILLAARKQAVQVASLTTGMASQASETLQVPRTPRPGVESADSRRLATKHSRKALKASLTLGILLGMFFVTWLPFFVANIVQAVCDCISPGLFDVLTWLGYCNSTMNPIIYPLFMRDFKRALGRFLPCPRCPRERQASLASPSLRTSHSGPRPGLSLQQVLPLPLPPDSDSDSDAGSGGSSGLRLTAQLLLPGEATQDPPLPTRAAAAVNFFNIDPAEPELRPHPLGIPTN

Structure (SMILES) | V0 / Vi [1] | vinit [1] | V0 / Vi [2, 8] | vinit [2, 8] | inhibition at 10 µM [3, 11] | inhibition at 10 µM [3, 12] | inhibition at 10 µM [3, 13] | inhibition at 10 µM [3, 14] | inhibition at 10 µM [3, 15] | inhibition at 10 µM [4, 16] | inhibition at 10 µM [4, 17] | inhibition at 10 µM [4, 18] | inhibition at 10 µM [4, 19] | inhibition at 10 µM [4, 20] | inhibition at 10 µM [5, 22] | inhibition at 10 µM [5, 23] | inhibition at 10 µM [5, 24] | inhibition at 10 µM [5, 25] | inhibition at 10 µM [5, 26] | other results
O=C1NC(=O)/C(=C\c2cccs2)N1 [SX-H12] | 1.13 | 29.929 and 26.071 | 1.27 | 12.7 and 12.5 |  |  |  |  |  |  |  |  |  |  |  |  |  |  |  | vinit, avrg. [2, 6]: 13.665; vinit [2, 6]: 13.174 and 12.668 and 15.15; V0 / Vi [2, 7]: 1.24; vinit, avrg. [2, 7]: 27.296; vinit [2, 7]: 25.633 and 28.073 and 28.18; Ki [2, 9]: 552 µM; Ki [2, 10]: 380 µM
O=C1CCN(c2ccncc2)CC1 [SX-G7] | 0.90 | 36.109 and 37.055 | 1.03 | 17.5 and 15.6 |  |  |  |  |  |  |  |  |  |  |  |  |  |  |  | 
Oc1ccccc1N1CCCCC1 [SX-A12] | 0.93 | 34.073 and 33.6 | 1.24 | 11.714 and 11.643 |  |  |  |  |  |  |  |  |  |  |  |  |  |  |  | V0 / Vi [2, 6]: 1.21; vinit, avrg. [2, 6]: 13.477; vinit [2, 6]: 13.208 and 13.684 and 13.54; V0 / Vi [2, 7]: 1.14; vinit [2, 7]: 30.42 and 30.848 and 34.37; Ki [2, 9]: 597 µM; Ki [2, 10]: 625 µM
CN(C)c1cc(CN)ccn1 [SX-G3] | 0.92 | 35.564 and 35.891 | 0.93 | 17.9 and 18.5 |  |  |  |  |  |  |  |  |  |  |  |  |  |  |  | 
Clc1ccc2nnnn2n1 [SX-E6] | 0.99 | 32.073 and 28.473 | 1.12 | 15.357 and 15.429 |  |  |  |  |  |  |  |  |  |  |  |  |  |  |  | 
Brc1ccc(-c2ccon2)cc1 [SX-A9] | 0.98 | 30.873 and 32.327 | 0.98 | 19.055 and 17.6 |  |  |  |  |  |  |  |  |  |  |  |  |  |  |  | 
Cn1c(CO)nc2ccccc21 [SX-G2] | 1.00 | 32.764 and 33.018 | 0.96 | 18 and 17.3 |  |  |  |  |  |  |  |  |  |  |  |  |  |  |  | 
c1ccc(-c2ccncc2)cc1 [SX-C2] | 0.98 | 30.473 and 29.273 | 1.01 | 16.764 and 18 |  |  |  |  |  |  |  |  |  |  |  |  |  |  |  | 
Cc1cnc(C(F)(F)F)cn1 [SX-B9] | 1.01 | 31.164 and 30.509 | 0.98 | 18.8 and 17.6 |  |  |  |  |  |  |  |  |  |  |  |  |  |  |  | 
COc1ccccc1C1CCNCC1 [SX-A11] | 0.93 | 35.636 and 31.927 | 0.86 | 16.916 and 16.512 |  |  |  |  |  |  |  |  |  |  |  |  |  |  |  | 
FC1(F)CNCC(F)(F)O1 [SX-H3] | 0.99 | 34.218 and 32.291 | 0.94 | 18.2 and 17.8 |  |  |  |  |  |  |  |  |  |  |  |  |  |  |  | 
Cc1ccc(-c2ccc(O)cc2)cc1 [SX-D7] | 1.05 | 30.8 and 28.545 | 1.15 | 14.909 and 16.073 |  |  |  |  |  |  |  |  |  |  |  |  |  |  |  | 
CC1(C)OC(=O)c2cc(Br)c(O)cc2O1 [SX-C6] | 1.14 | 27.418 and 25.091 | 1.03 | 16.857 and 16.429 |  |  |  |  |  |  |  |  |  |  |  |  |  |  |  | 
O=C1CCC(=O)N(c2ccccc2)N1 [SX-H7] | 1.06 | 30 and 29.357 | 0.97 | 16.4 |  |  |  |  |  |  |  |  |  |  |  |  |  |  |  | 
CCc1nccn1CC(=O)O [SX-G11] | 1.02 | 32.764 and 31.636 | 1.08 | 16.214 and 15.4 |  |  |  |  |  |  |  |  |  |  |  |  |  |  |  | 
Oc1nnc(-c2ccccc2)o1 [SX-F7] | 0.99 | 31.527 and 31.273 | 1.07 | 16.182 and 17.345 |  |  |  |  |  |  |  |  |  |  |  |  |  |  |  | 
O=C1CCN(c2ccccn2)CC1 [SX-G8] | 0.99 | 33.236 | 0.97 | 18.3 and 16.6 |  |  |  |  |  |  |  |  |  |  |  |  |  |  |  | 
Cn1c(N)nc2ccccc21 [A6] |  |  |  |  | 0% | -7% | 0% | -18% | 3% | 0% | -10% | 0% | -3% | -18% | 25% | 25% | 25% | 22% | 29% | Ki [2, 21]: 277 µM
c1ccc(Nc2nncs2)cc1 [D8] |  |  |  |  | 0% | -2.41% | 0% | -10% | 5.56% | 0% | -12% | 0% | -3.33% | -21% | 1.55% | 1.55% | 1.55% | 9% | -6% | Ki [2, 21]: 733 µM
O=C1NC(=O)/C(=C\c2cccs2)N1 [H12] |  |  |  |  | 3.44% | 3.44% | 3.44% | 7% | -0.195% | 3.77% | 3.77% | 3.77% | 6% | 1.68% | 32% | 32% | 32% | 31% | 32% | Ki [2]: 466 µM
Oc1ccccc1N1CCCCC1 [A12] |  |  |  |  | 0% | -10% | 0% | 3.37% | -23% | 0% | -0.0781% | 0% | -4.73% | 4.58% | 55% | 55% | 55% | 69% | 42% | Ki [2, 21]: 611 µM
O=C(O)c1cnc(-c2ccccc2)s1 [F3] |  |  |  |  | 2.52% | 2.52% | 2.52% | -2.47% | 7.5% | 0% | -18% | 0% | -6% | -31% | 41% | 41% | 41% | 48% | 34% | Ki [1]: 271 µM
O=C(c1ccccc1F)N1CCNCC1 [E12] |  |  |  |  | 15% | 15% | 15% | 13% | 17% | 0% | -6% | 0% | -4.53% | -8% | 17% | 17% | 17% | 12% | 22% | Ki [2]: 510 µM
O=C(O)C1CCN(c2ncccn2)CC1 [E9] |  |  |  |  | 3% | 3% | 3% | 11% | -4.35% | 0% | -8.55% | 0% | 3.77% | -21% | 29% | 29% | 29% | 32% | 26% | Ki [1]: 76 µM
Nc1nnc(-c2cccs2)[nH]1 [D3] |  |  |  |  | 0.863% | 0.863% | 0.863% | 1.73% | 0% | 0% | -1.67% | 0% | 1.55% | -5% | 52% | 52% | 52% | 52% | 53% | Ki [1]: 181 µM
